# Source: paper PMC9389804 (Journal of Hematology & Oncology, 2022)
# Where “and” joins values, the source holds several entries; their conditions need not be identical. Identical values can stand only once.
# Assay: safety assessments (adverse events, NCI CTCAE)
# Conditions: for Treatment-related cardiovascular events: any grade
# [1] = median follow-up of nearly 3 years
# [2] = nonhematologic TRAE, all 165 patients
# [3] = treatment-related CVE G 3/4, Accelerated phase n=38
# [4] = treatment-related CVE G 3/4, Chronic phase n=127
# [5] = treatment-related CVE G 3/4, Total n=165
# [6] = treatment-related CVE any grade, Accelerated phase n=38
# [7] = treatment-related CVE any grade, Chronic phase n=127
# [8] = treatment-related CVE any grade, Total n=165
# Experimental: Adverse events were assessed continuously and graded according to NCI CTCAE v5.0.18. Complete blood count with differential, serum chemistries, and physical examinations were performed before the study; weekly during Cycles 1 and 2; on alternate weeks in Cycles 3 and 4; and monthly thereafter.
compound,measurement,setting,value
Cc1ccc(C(=O)Nc2ccc(CN3CCN(C)CC3)c(C(F)(F)F)c2)cc1C#Cc1cnc2[nH]ncc2c1 [olverembatinib],Hematologic,"TRAE any grades, Total n=165",138 (83.6) n (%)
same,Hyperbilirubinemia,"TRAE any grades, Total n=165",69 (41.8) n (%)
same,Hyperglycemia,"TRAE any grades, Total n=165",43 (26.1) n (%)
same,Hypertriglyceridemia,"TRAE any grades, Total n=165",95 (57.6) n (%)
same,Hypoalbuminemia,"TRAE any grades, Total n=165",26 (15.8) n (%)
same,Hypocalcemia,"TRAE any grades, Total n=165",64 (38.8) n (%)
same,Hypokalemia,"TRAE any grades, Total n=165",42 (25.5) n (%)
same,Hyponatremia,"TRAE any grades, Total n=165",38 (23.0) n (%)
same,Increased alanine aminotransferase,"TRAE any grades, Total n=165",59 (35.8) n (%)
same,Increased alkaline phosphatase,"TRAE any grades, Total n=165",21 (12.7) n (%)
same,Increased aspartate aminotransferase,"TRAE any grades, Total n=165",59 (35.8) n (%)
same,Increased creatine phosphokinase,"TRAE any grades, Total n=165",48 (29.1) n (%)
same,Increased γ-glutamyl transferase,"TRAE any grades, Total n=165",47 (28.5) n (%)
same,Leukopenia,"TRAE any grades, Total n=165",56 (33.9) n (%)
same,Myalgia,"TRAE any grades, Total n=165",31 (18.8) n (%)
same,Neutropenia,"TRAE any grades, Total n=165",26 (15.8) n (%)
same,Nonhematologic,"TRAE any grades, Total n=165",165 (100.0) n (%)
same,Pain in extremity,"TRAE any grades, Total n=165",21 (12.7) n (%)
same,Proteinuria,"TRAE any grades, Total n=165",84 (50.9) n (%)
same,Pyrexia,"TRAE any grades, Total n=165",30 (18.2) n (%)
same,Rash,"TRAE any grades, Total n=165",27 (16.4) n (%)
same,Sinus tachycardia,"TRAE any grades, Total n=165",30 (18.2) n (%)
same,Skin pigmentation,"TRAE any grades, Total n=165",139 (84.2%) n (%) and 139 (84.2) n (%)
same,Thrombocytopenia,"TRAE any grades, Total n=165",126 (76.4) n (%)
same,Treatment-related adverse events,"TRAE any grades, Total n=165",165 (100.0) n (%)
same,Adverse events resulting in dose interruption,Total n=165,86 (52.1%) n (%) and 86 (52.1) n (%)
same,Adverse events resulting in dose reduction,Total n=165,50 (30.3%) n (%) and 50 (30.3) n (%)
same,Adverse events resulting in treatment discontinuation,Total n=165,13 (7.9) n (%)
same,severe thrombocytopenia leading to dose reduction,all 165 patients,15.8%
same,Treatment-related cardiovascular events,Accelerated phase n=38,9 (23.7) n (%)
same,Treatment-related cardiovascular events,Chronic phase n=127,44 (34.6) n (%)
same,Treatment-related cardiovascular events,Total n=165,53 (32.1%) n (%) and 53 (32.1) n (%)
same,median time to temporary treatment suspension or dose reduction,for SAEs,5 months
same,patients requiring temporary treatment suspension or dose reduction,for SAEs,75 (46.0%) n (%)
same,"myelosuppression, median duration",in vivo,36 (7–718) days
same,"myelosuppression, median onset time",in vivo,28 (4–676) days
same,patients in whom CVEs were grade 1 or 2,in vivo,88.5%
same,patients who received platelet transfusions,in vivo,11.5%
same,patients who received red blood cell transfusions,in vivo,9.7%
same,median duration of treatment interruptions,interruptions due to AEs,56 days
same,median number of treatment interruptions,interruptions due to AEs,2
same,incidence of arterial occlusive and venous thrombotic events,[1],5.0%
same,olverembatinib-related CVEs,[1],32.0%
same,median time to onset of nonhematologic TRAEs,most frequent nonhematologic TRAEs,70 days
same,Hyperbilirubinemia,[2],41.8%
same,Hypertriglyceridemia,[2],57.6%
same,Hypocalcemia,[2],38.8%
same,Proteinuria,[2],50.9%
same,elevated liver transaminases,[2],35.8%
same,patients with Fridericia-corrected QT interval exceeding 500 ms on treatment,patients with CVEs,None
same,renal function according to estimated glomerular filtration rate,patients with persistent proteinuria,did not observe decreased renal function
same,Anemia,serious AE (SAE),6.0%
same,Atrial fibrillation,serious AE (SAE),2.0%
same,Pneumonia,serious AE (SAE),3.0%
same,Pyrexia,serious AE (SAE),2.0%
same,Thrombocytopenia,serious AE (SAE),9.0%
same,"acute MI, cholelithiasis, pericardial effusion, upper-respiratory-tract infection, and urinary-tract infection (each)",serious AE (SAE),1%
same,Acute coronary syndrome,[3],0 n (%)
same,Acute myocardial infarction,[3],0 n (%)
same,Angina pectoris,[3],0 n (%)
same,Arrhythmia,[3],0 n (%)
same,Arteriosclerosis coronary artery,[3],0 n (%)
same,Atrial fibrillation,[3],1 (2.6) n (%)
same,Atrial tachycardia,[3],0 n (%)
same,Cardiomegaly,[3],0 n (%)
same,Cerebral infarction,[3],0 n (%)
same,Lacunar infarction,[3],0 n (%)
same,Palpitations,[3],0 n (%)
same,Pericardial effusion,[3],1 (2.6) n (%)
same,Retinal-vein occlusion,[3],0 n (%)
same,Supraventricular extrasystoles,[3],0 n (%)
same,Ventricular extrasystoles,[3],0 n (%)
same,Acute coronary syndrome,[4],1 (0.8) n (%)
same,Acute myocardial infarction,[4],1 (0.8) n (%)
same,Angina pectoris,[4],0 n (%)
same,Arrhythmia,[4],1 (0.8) n (%)
same,Arteriosclerosis coronary artery,[4],1 (0.8) n (%)
same,Atrial fibrillation,[4],1 (0.8) n (%)
same,Atrial tachycardia,[4],0 n (%)
same,Cardiomegaly,[4],0 n (%)
same,Cerebral infarction,[4],1 (0.8) n (%)
same,Lacunar infarction,[4],1 (0.8) n (%)
same,Palpitations,[4],0 n (%)
same,Pericardial effusion,[4],1 (0.8) n (%)
same,Retinal-vein occlusion,[4],2 (1.6) n (%)
same,Supraventricular extrasystoles,[4],0 n (%)
same,Ventricular extrasystoles,[4],0 n (%)
same,Acute coronary syndrome,[5],1 (0.6) n (%)
same,Acute myocardial infarction,[5],1 (0.6) n (%)
same,Angina pectoris,[5],0 n (%)
same,Arrhythmia,[5],1 (0.6) n (%)
same,Arteriosclerosis coronary artery,[5],1 (0.6) n (%)
same,Atrial fibrillation,[5],2 (1.2) n (%)
same,Atrial tachycardia,[5],0 n (%)
same,Cardiomegaly,[5],0 n (%)
same,Cerebral infarction,[5],1 (0.6) n (%)
same,Lacunar infarction,[5],1 (0.6) n (%)
same,Palpitations,[5],0 n (%)
same,Pericardial effusion,[5],2 (1.2) n (%)
same,Retinal-vein occlusion,[5],2 (1.2) n (%)
same,Supraventricular extrasystoles,[5],0 n (%)
same,Ventricular extrasystoles,[5],0 n (%)
same,Acute coronary syndrome,[6],0 n (%)
same,Acute myocardial infarction,[6],0 n (%)
same,Angina pectoris,[6],0 n (%)
same,Arrhythmia,[6],0 n (%)
same,Arteriosclerosis coronary artery,[6],0 n (%)
same,Atrial fibrillation,[6],3 (7.9) n (%)
same,Atrial tachycardia,[6],0 n (%)
same,Cardiomegaly,[6],0 n (%)
same,Cerebral infarction,[6],0 n (%)
same,Lacunar infarction,[6],0 n (%)
same,Palpitations,[6],1 (2.6) n (%)
same,Pericardial effusion,[6],3 (7.9) n (%)
same,Retinal-vein occlusion,[6],0 n (%)
same,Supraventricular extrasystoles,[6],2 (5.3) n (%)
same,Ventricular extrasystoles,[6],0 n (%)
same,Acute coronary syndrome,[7],1 (0.8) n (%)
same,Acute myocardial infarction,[7],1 (0.8) n (%)
same,Angina pectoris,[7],1 (0.8) n (%)
same,Arrhythmia,[7],1 (0.8) n (%)
same,Arteriosclerosis coronary artery,[7],1 (0.8) n (%)
same,Atrial fibrillation,[7],2 (1.6) n (%)
same,Atrial tachycardia,[7],1 (0.8) n (%)
same,Cardiomegaly,[7],1 (0.8) n (%)
same,Cerebral infarction,[7],1 (0.8) n (%)
same,Lacunar infarction,[7],1 (0.8) n (%)
same,Palpitations,[7],1 (0.8) n (%)
same,Pericardial effusion,[7],11 (8.7) n (%)
same,Retinal-vein occlusion,[7],3 (2.4) n (%)
same,Supraventricular extrasystoles,[7],3 (2.4) n (%)
same,Ventricular extrasystoles,[7],7 (5.5) n (%)
same,Acute coronary syndrome,[8],1 (0.6) n (%)
same,Acute myocardial infarction,[8],1 (0.6) n (%)
same,Angina pectoris,[8],1 (0.6) n (%)
same,Arrhythmia,[8],1 (0.6) n (%)
same,Arteriosclerosis coronary artery,[8],1 (0.6) n (%)
same,Atrial fibrillation,[8],5 (3.0) n (%)
same,Atrial tachycardia,[8],1 (0.6) n (%)
same,Cardiomegaly,[8],1 (0.6) n (%)
same,Cerebral infarction,[8],1 (0.6) n (%)
same,Lacunar infarction,[8],1 (0.6) n (%)
same,Palpitations,[8],2 (1.2) n (%)
same,Pericardial effusion,[8],14 (8.5) n (%)
same,Retinal-vein occlusion,[8],3 (1.8) n (%)
same,Supraventricular extrasystoles,[8],5 (3.0) n (%)
same,Ventricular extrasystoles,[8],7 (4.2) n (%)
